Results reported in the supplement of paper PMC10307832.

What was measured:
Experiment in all cases: relative viability (nuclei count vs DMSO), 5 days (fraction); higher = more cells survive
Everolimus + Trametinib = compound: CO[C@H]1C[C@@H]2CC[C@@H](C)[C@@](O)(O2)C(=O)C(=O)N2CCCC[C@H]2C(=O)O[C@H]([C@H](C)C[C@@H]2CC[C@@H](OCCO)[C@H](OC)C2)CC(=O)[C@H](C)/C=C(\C)[C@@H](O)[C@@H](OC)C(=O)[C@H](C)C[C@H](C)/C=C/C=C/C=C/1C [Everolimus] + CC(=O)Nc1cccc(-n2c(=O)n(C3CC3)c(=O)c3c(Nc4ccc(I)cc4F)n(C)c(=O)c(C)c32)c1 [Trametinib] (partner 0.02 µM)
How it was run: (§1)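 Lung cancer cell lines in 1536-well plates were dosed by pin tool the day after seeding, either with one drug alone or with a fixed anchor-drug dose plus five library-drug doses (not always all listed) in √10 steps. After 5 days, cells were fixed and their nuclei stained in one step (final 0.05% Triton X-100, 1% formaldehyde, 1 ug/ml Hoechst), then counted on 4× images. Relative viability is the nuclei count in treated wells divided by that in vehicle wells. Values are medians of duplicate plates.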

Everolimus + Bortezomib = compound: CO[C@H]1C[C@@H]2CC[C@@H](C)[C@@](O)(O2)C(=O)C(=O)N2CCCC[C@H]2C(=O)O[C@H]([C@H](C)C[C@@H]2CC[C@@H](OCCO)[C@H](OC)C2)CC(=O)[C@H](C)/C=C(\C)[C@@H](O)[C@@H](OC)C(=O)[C@H](C)C[C@H](C)/C=C/C=C/C=C/1C [Everolimus] + CC(C)C[C@H](NC(=O)[C@H](Cc1ccccc1)NC(=O)c1cnccn1)B(O)O [Bortezomib] (partner 0.002 µM)
How it was run: as §1

Everolimus + Pictilisib = compound: CO[C@H]1C[C@@H]2CC[C@@H](C)[C@@](O)(O2)C(=O)C(=O)N2CCCC[C@H]2C(=O)O[C@H]([C@H](C)C[C@@H]2CC[C@@H](OCCO)[C@H](OC)C2)CC(=O)[C@H](C)/C=C(\C)[C@@H](O)[C@@H](OC)C(=O)[C@H](C)C[C@H](C)/C=C/C=C/C=C/1C [Everolimus] + CS(=O)(=O)N1CCN(Cc2cc3nc(-c4cccc5[nH]ncc45)nc(N4CCOCC4)c3s2)CC1 [Pictilisib] (partner 1 µM)
How it was run: as §1

Everolimus + Olaparib = compound: CO[C@H]1C[C@@H]2CC[C@@H](C)[C@@](O)(O2)C(=O)C(=O)N2CCCC[C@H]2C(=O)O[C@H]([C@H](C)C[C@@H]2CC[C@@H](OCCO)[C@H](OC)C2)CC(=O)[C@H](C)/C=C(\C)[C@@H](O)[C@@H](OC)C(=O)[C@H](C)C[C@H](C)/C=C/C=C/C=C/1C [Everolimus] + O=C(c1cc(Cc2n[nH]c(=O)c3ccccc23)ccc1F)N1CCN(C(=O)C2CC2)CC1 [Olaparib] (partner 8 µM)
How it was run: as §1

Cell Line	relative viability (Everolimus + Trametinib; first compound 0.01 µM)	relative viability (Everolimus + Trametinib; first compound 0.03162 µM)	relative viability (Everolimus + Trametinib; first compound 0.1 µM)	relative viability (Everolimus + Trametinib; first compound 0.3162 µM)	relative viability (Everolimus + Trametinib; first compound 1 µM)	relative viability (Everolimus + Bortezomib; first compound 0.01 µM)	relative viability (Everolimus + Bortezomib; first compound 0.03162 µM)	relative viability (Everolimus + Bortezomib; first compound 0.1 µM)	relative viability (Everolimus + Bortezomib; first compound 0.3162 µM)	relative viability (Everolimus + Bortezomib; first compound 1 µM)	relative viability (Everolimus + Pictilisib; first compound 0.01 µM)	relative viability (Everolimus + Pictilisib; first compound 0.03162 µM)	relative viability (Everolimus + Pictilisib; first compound 0.1 µM)	relative viability (Everolimus + Pictilisib; first compound 0.3162 µM)	relative viability (Everolimus + Pictilisib; first compound 1 µM)	relative viability (Everolimus + Olaparib; first compound 0.01 µM)	relative viability (Everolimus + Olaparib; first compound 0.03162 µM)	relative viability (Everolimus + Olaparib; first compound 0.1 µM)	relative viability (Everolimus + Olaparib; first compound 0.3162 µM)	relative viability (Everolimus + Olaparib; first compound 1 µM)
HOP-62	0.263	0.211	0.248	0.2	0.195	0.493	0.662	0.399	0.489	0.574	0.326	0.274	0.17	0.267	0.352	0.354	0.434	0.5	0.505	0.339
LC-2-ad	0.961	0.957	0.948	0.964	0.891	1.05	1.1	0.997	0.943	1	0.456	0.372	0.386	0.282	0.283	0.861	0.972	0.817	0.84	0.864
LCLC-97TM1	0.153	0.164	0.126	0.155	0.147	0.607	0.489	0.525	0.246	0.495	0.126	0.123	0.128	0.135	0.144	0.356	0.317	0.291	0.269	0.434
LCLC-103H	0.605	0.659	0.661	0.601	0.591	1.06	1.01	1.02	1.07	0.749	0.512	0.459	0.471	0.479	0.466	0.709	0.762	0.669	0.685	0.761
LOU-NH91	0.626	0.695	0.667	0.612	0.623	0.504	0.521	0.488	0.521	0.518	0.516	0.484	0.462	0.485	0.465	0.744	0.829	0.789	0.788	0.777
LU99A	0.35	0.268	0.298	0.314	0.354	0.647	0.599	0.543	0.568	0.614	0.213	0.212	0.212	0.194	0.249	0.246	0.21	0.226	0.216	0.236
LXF-289	0.625	0.537	0.574	0.508	0.528	0.976	1.01	0.987	1.03	1.01	0.579	0.624	0.513	0.555	0.509	1.03	1.04	0.885	1.03	1
